This is an account of results in publication PMC12648864 (Biology of Sex Differences, 2025).

The subject of the assay is plasma metabolites. The class given is in vivo, rat. The procedure:
Male and female SD rats were divided into experimental and control groups. Each group contained 10 male and 10 female rats. […] Blood was collected from orbital vein into sodium heparin-coated centrifugal tubes pre-chilled at 4 ℃, at 30 min, 2 h, and 12 h post-administration respectively. Plasma was separated by gentle inversion, immediately quenched in liquid nitrogen, and centrifuged at 1500 g for 10 min at 4 ℃. The prepared plasma was stored at − 80 ℃ until LC-MS/MS analysis.
The stored plasma samples were thawed at 4 °C, and 100 µL of each sample was transferred to a centrifuge tube. Proteins were precipitated using 1 mL of methanol/acetonitrile/water solution (2:2:1, v: v:v) at 4 °C. After vortex mixing, the sample mixture was sonicated for 30 min (ice was used to maintain the low-temperature conditions). The sonicated mixture was allowed to stand for 10 min at […], then centrifuged at 14,000 g for 20 min at 4 °C. The resulting supernatant was collected and dried under vacuum. For instrumental analysis, the dried supernatant was reconstituted in 100 µL of aqueous acetonitrile solution, vortexed, then centrifuged at 14,000 g for 15 min at 4 °C. To ensure instrument stability and data reliability, quality control samples were prepared and analyzed using random sampling.
Chromatographic conditions: separation was performed in a Waters Acquity UPLC BEH Amide column (1.7 μm, 2.1 × 100 mm). The column temperature was 25 ℃ and flow rate was 0.5 mL/min. The injection volume was 2 µL, with the mobile phases consisting of A: water + 25 mM ammonium acetate + 25 mM ammonia, and B: acetonitrile. The gradient elution program was as follows: 0–0.5 min, 95% B; 0.5–7 min, 95%−65% B; 7–8 min, 65%−40% B; 8–9 min, 40% B; 9–9.1 min, 40%−95%B; 9.1–12 min, 95%B.
MS conditions: Detection was carried out using electrospray ionization in both positive and negative ion modes. The following parameters were used: spray voltage, ± 5500 V; ionization temperature, 600 ℃; nebulization air pressure, 60 psi; auxiliary air pressure, 60 psi; air curtain air pressure, 30 psi; time-of-flight MS scanning range (m/z), 60–1000 Da; product ion scanning range, 25–1000 Da. The secondary mass spectra were acquired using information-dependent acquisition in high-resolution mode. The cone bore voltage was ± 60 V (positive and negative modes) and collision energy was 35 ± 15 eV.
Orthogonal partial least squares-discriminant analysis (OPLS-DA) were computed for control female and male rats. […] Differential metabolites were identified using stringent criteria: variable importance in projection (VIP) scores > 1 and statistically significant from t-test.
OPLS-DA scores were calculated for the control group and experimental male rats. […] Differential metabolites were identified using stringent selection criteria: VIP scores > 1.0 and P < 0.05, as derived from the OPLS-DA model.
We performed pairwise comparisons of metabolites between male and female rats in the experimental and control groups. […] We performed KEGG enrichment analysis on metabolites that differed between male and female rats in the experimental group (Fig. 6G-I).

[1] abbreviates: male rats, test (TM3) vs control (BM3), 30 minutes, plasma.
Setting [2] is: female rats, 30 minutes, test group (TF3, strychnine) vs control group (BF3), plasma metabolite.
Setting [3] is: male rats, test (TM5) vs control (BM5), 2 hours, plasma.
[4] abbreviates: female rats, 2 hour, test group (TF5, strychnine) vs control group (BF5), plasma metabolite.
[5] abbreviates: female rats, 12 hour, test group (TF8, strychnine) vs control group (BF8), plasma metabolite.
The mark [6] stands for this setting: male rats, test (TM8) vs control (BM8), 12 hours, plasma.

SMILES strings stand for the structures. Where “and” joins values, the source holds several entries; their conditions need not be identical. Equal entries are not always repeated. Where two headings read alike, the source gives them in different places.

Turning to `CCCCCCCC/C=C\CCCCCCCC(=O)O[C@H](COC(=O)CCCCCCCCCCCCCCCCC)COP(=O)([O-])OCC[N+](C)(C)C`, the Fold change under setting [1] turned out to be 0.7683. For the compound `CCCCCCCC/C=C\CCCCCCCC(=O)OC[C@H](COP(=O)([O-])OCC[N+](C)(C)C)OC(=O)CCCCCCC/C=C\CCCCCCCC`, the Fold change reads like this: under setting [2], 0.7409; under setting [1], 1.344.

As for `CCCCC/C=C\C/C=C\CCCCCCCC(=O)OCC(O)CO` (racemic) [MG(18:2(9Z,12Z)/0:0/0:0)[rac]], the Fold change under setting [1] is 0.8489. In the case of `C[n+]1cccc(C(N)=O)c1` [1-Methylnicotinamide], the Fold change under setting [3] worked out at 1.347.

As to `CCCCCCCCCCCCCC(=O)OC[C@@H](O)COP(=O)([O-])OCC[N+](C)(C)C` [1-Myristoyl-sn-glycero-3-phosphocholine], the Fold change reads like this: under setting [2], 0.7956; under setting [4], 0.6202; under setting [5], 0.767; under setting [1], 1.568; under setting [6], 1.421. Take `CCCCCCCC/C=C\CCCCCCCC(=O)OC[C@@H](O)COP(=O)([O-])OCC[N+](C)(C)C` [1-Oleoyl-sn-glycero-3-phosphocholine]: the Fold change under setting [2] is reported as 0.8445. Turning to `CCCCCCCCCCCCCCCC(=O)OCC(O)CO` (stereo not shown) [1-Palmitoylglycerol], the Fold change under setting [2] is reported as 0.3279, the Fold change under setting [5] is on record as 1.171 and the Fold change under setting [3] is 0.6081. As for `CCCCCCCCCCCCCCCC(=O)OC[C@@H](O)COP(=O)([O-])OCC[N+](C)(C)C` [1-Palmitoyllysophosphatidylcholine], the Fold change under setting [3] came out at 1.155. For `CCCCCCCCCCCCCCCCCC(=O)OC[C@@H](O)COP(=O)([O-])OCC[N+](C)(C)C` [1-Stearoyl-sn-glycerol 3-phosphocholine], the Fold change stood at 0.8936 under setting [1] and 0.2224 under setting [6]. For `C=C1CC[C@H](O)C/C1=C/C=C1\CCC[C@]2(C)[C@@H]([C@H](C)CCCC(C)C)CC[C@@H]12` [Cholecalciferol (Vitamin D3)], the Fold change is 1.921 under setting [2] and 1.578 under setting [3]. For `O=C(O)[C@H]1CCCCN1` [D-Pipecolinic acid], the Fold change is on record as 2.231 under setting [2] and 1.817 under setting [4]. Take `CCCC[C@H](N)C(=O)O` [L-Norleucine]: the Fold change is, setting by setting: under setting [2], 0.6394; under setting [4], 1.28; under setting [5], 1.298; under setting [6], 0.6711. As to `CCCCCCCCCCCCCCCC(=O)O[C@H](CC(=O)[O-])C[N+](C)(C)C` [L-Palmitoylcarnitine], the Fold change came out at 2.52 under setting [2] and 1.713 under setting [4]. Turning to `O=C(O)[C@@H]1CCCCN1` [L-Pipecolic acid], the Fold change runs as follows: under setting [2], 0.7035; under setting [4], 1.162; under setting [5], 1.276. For the compound `CC(C)CCC[C@@H](C)[C@H]1CC[C@H]2C3=CC[C@H]4C[C@@H](O)CC[C@]4(C)[C@H]3CC[C@]12C` [Lathosterol], the Fold change is 2.481 under setting [2], 0.602 under setting [5] and 3.049 under setting [6]. With `CCCCCCCCCCCCC/C=C/[C@@H](O)[C@H](CO)NC(=O)CCCCCCCCCCCCCCC` [N-Palmitoylsphingosine], the Fold change under setting [6] was found to be 1.476. For the compound `CN(C)C(N)=NCCC[C@H](N)C(=O)O` [NG,NG-dimethyl-L-arginine(ADMA)], the Fold change under setting [1] came out at 0.5058. On the same count and under the same terms, the same measure for `CC(=O)OC[C@H](N)C(=O)O` [O-Acetyl-L-serine]: 0.6094. Turning to `CCCCCCCCCCCCCCCC(=O)OC[C@H](COP(=O)([O-])OCC[N+](C)(C)C)OC(=O)CCCCCCCCCCCCCCC` [PC(16:0/16:0)], the Fold change under setting [6] stood at 0.7843. Still for that read-out and setting: the figure for `CSC[C@H]1O[C@@H](n2cnc3c(N)ncnc32)[C@H](O)[C@@H]1O` [S-Methyl-5'-thioadenosine] is 0.6708.

`CCCCCCCCCCCCCCC[C@@H](O)[C@@H](N)CO` [Sphinganine]: under setting [2], the Fold change is recorded as 1.985. As for `CCCCCCCCCCCCC/C=C/[C@@H](O)[C@H](COP(=O)([O-])OCC[N+](C)(C)C)NC(=O)CCCCCCCCCCCCCCCCC` [Sphingomyelin (d18:1/18:0)], the Fold change (rat, in vivo) was 1.142 and 1.189. For `COc1ccc(-c2cc(=O)c3c(OC)c(OC)c(OC)c(OC)c3o2)cc1` [Tangeritin], the Fold change is, setting by setting: under setting [4], 3.045; under setting [5], 9.489; under setting [6], 0.02313. In the case of `CCCCCCCCCCCCCCCCSC[C@H](COP(=O)(O)OCC[N+](C)(C)C)NC(=O)CCCCCCCCCCCCCCC` [Thioetheramide-PC], the Fold change was 1.1574 under setting [5] and 0.7991 under setting [6]. Take `NC(N)=O` [Urea]: the Fold change under setting [4] turned out to be 1.116. As to `O=C1CCCCCN1` [epsilon-Caprolactam], the Fold change under setting [2] is given as 1.263, the Fold change under setting [5] is given as 0.793 and the Fold change under setting [3] stood at 0.6921.
